For the assay, the target named is human dopamine D2L receptor (Homo sapiens, UniProt P14416). The assay can be described thus: Dopamine D2L [35S]GTPγS functional assay (SPA, CHO membranes). It is filed as biochemical. The following applies: read-out: D2L GTPgS % Inhibition. How it is done: To determine for agonist or antagonist activity of compounds of the invention in functional assays, human recombinant dopamine D2L receptor stably expressed in Chinese hamster ovary (CHO) cells (Senogles S E et al. J Biol Chem. 265(8): 4507, 1990) was used. Compounds of invention were pre-incubated with the membranes (0.1 mg/mL) and 10 mM GDP in modified HEPES buffer (20 mM HEPES, pH 7.4, 100 mM NaCl, 10 mM MgCl2, 1 mM DTT, 1 mM EDTA) for 20 min. and Scintillation Proximity Assay (SPA) beads were added for another 60 min. at 30° C. The reaction was initiated by 0.3 nM [^35S]GTPγS for an additional 15 min. incubation period. […] Compounds were screened at […] or lower, using 0.4% DMSO as vehicle. Assay results are presented as the percent response of specific binding in Table 12.
Chain of human dopamine D2L receptor (P14416 whole entry): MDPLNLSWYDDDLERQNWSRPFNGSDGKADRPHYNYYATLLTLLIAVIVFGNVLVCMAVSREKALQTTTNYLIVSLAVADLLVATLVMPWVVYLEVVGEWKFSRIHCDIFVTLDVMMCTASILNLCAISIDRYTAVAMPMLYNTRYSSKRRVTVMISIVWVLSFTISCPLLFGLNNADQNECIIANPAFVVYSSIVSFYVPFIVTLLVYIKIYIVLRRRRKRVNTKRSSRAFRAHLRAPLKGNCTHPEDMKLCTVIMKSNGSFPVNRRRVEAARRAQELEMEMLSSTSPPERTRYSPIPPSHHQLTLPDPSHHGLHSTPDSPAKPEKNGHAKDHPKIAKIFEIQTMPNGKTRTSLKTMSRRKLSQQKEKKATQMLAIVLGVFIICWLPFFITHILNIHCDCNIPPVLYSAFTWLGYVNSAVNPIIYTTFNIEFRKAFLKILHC
A general note: Binding of GTPγS marks nucleotide exchange on a G protein.

For `C/C(=C\n1c2c(c3cc(Cl)ccc31)CN(C)CC2)c1ccc(F)cc1` [Compound 83, (E)-8-chloro-5-(2-(4-fluorophenyl)prop-1-enyl)-2,3,4,5-tetrahydro-2-methyl-1H-pyrido[4,3-b]indole], where the note is “conc. 1 nM”, the inhibition at 0.001 µM worked out at 16%. For the same molecule, the inhibition at 0.003 µM (conc. 3 nM) was found to be 28%. The inhibition at 0.01 µM (conc. 10 nM) turned out to be 49%. For the same molecule, the inhibition at 0.03 µM (conc. 30 nM) turned out to be 55%. Besides, the inhibition at 0.1 µM (conc. 100 nM) stood at 77%.

Usually inhibition stands for the percentage by which the read-out fell short of the control.

Source of the values: patent US8906925B2, “Pyrido[4,3-B]indoles containing rigid moieties” (Medivation Technologies, Inc., priority 2008, dated 2014).
